US8895048B2, “Templated islet cells and small islet cell clusters for diabetes treatment” (The University of Kansas, priority 2010, dated 2014)

Tested on: beta cells
Experiment: Relative beta cell adhesion to biomaterial films in 96-well plates
Format: cell-based, rat
Settings: attached cells 24 hours after plating and three washes, normalized to empty well; triplicate
Method: In a typical experiment, 1% stock solutions of the listed biomaterials first were prepared. Most materials dissolved in deionized water at neutral pH. […] Polymers normally soluble in water (e.g. dextran sulfate, alginate, etc.) can be cross-linked to form the film matrix. Approximately 25 μL of each stock solution was added to three individual wells in 96-well plates and left to evaporate or vacuum dried, thus, depositing a thin biomaterial film at the bottom of each well. […] Several proteins offered commercially to promote cell adhesion on well plates (e.g. fibronectin, laminin, etc.) were prescreened for cell adhesion as well.
A dilute suspension of beta cells was incubated in the 96-well plates overnight and washed three times to remove unbound beta cells. The beta cell suspension was homogeneous and equal aliquots per well were assumed to contain a similar quantity of beta cells. […] In general, mildly hydrophobic polymers performed well for adhering beta cells (Table 1).
Cell adhesion was determined by counting the number of attached cells 24 hours after plating on the biomaterial and following three washes. The counts were normalized to the number of cells that attach to a well bottom lacking a biomaterial (see empty well, control) using the following calculation: number of cells attached in the well of interest/number of cells in empty well. Each experiment was repeated in triplicate.

Substance	Relative cell adhesion
Fibronectin	3.7 ± 0.7
Gelatin	2.0 ± 0.2
Laminin	8.7 ± 0.6
